Measured values taken from patent US5714148A, “Chemical compounds” (Zeneca Limited, priority 1992, dated 1998).

Assay: Unspecified tests of activity
Settings: tests not specified

For O=C(O)CC[C@H](NC(=O)Oc1ccc(N(CCI)CCI)cc1)C(=O)O [Example 33], the activity in tests was “good activity”.
